{
  "source": "patent US7452887B2",
  "about": "“Quinoline- and isoquinoline-based compounds exhibiting ATP-utilizing enzyme inhibitory activity, and compositions, and uses thereof” (Amphora Discovery Corporation, priority 2004, dated 2008)",
  "data": [
    {"molecular_target": "MAPKAPK2 (Homo sapiens, UniProt P49137)", "sequence (P49137 whole entry)": "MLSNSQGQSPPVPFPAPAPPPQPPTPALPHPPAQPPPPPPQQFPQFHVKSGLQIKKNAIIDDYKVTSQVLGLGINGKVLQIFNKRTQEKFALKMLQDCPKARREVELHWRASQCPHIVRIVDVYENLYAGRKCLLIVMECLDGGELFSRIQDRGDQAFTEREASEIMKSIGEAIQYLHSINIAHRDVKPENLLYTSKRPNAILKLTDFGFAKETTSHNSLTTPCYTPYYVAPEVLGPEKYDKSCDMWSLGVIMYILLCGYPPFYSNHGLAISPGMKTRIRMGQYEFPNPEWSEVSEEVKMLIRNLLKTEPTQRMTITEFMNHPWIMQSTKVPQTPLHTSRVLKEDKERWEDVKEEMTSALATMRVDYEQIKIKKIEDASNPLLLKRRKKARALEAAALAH", "experiment": "HTS ATP-utilizing enzyme assay, off-chip mobility-shift (Caliper HTS 250)", "type": "biochemical", "details": "test compound 10 μM, kinase listed = active (greater than six-sigma from the mean activity of inactive compounds)", "excerpt": "The following procedures describe the reagent and plate preparation for a HTS of an ATP-utilizing enzyme, such as a protein kinase, run in an off-chip mobility-shift assay format. The following provides an HTS protocol for running a protein kinase HTS screen on a Caliper HTS 250 microfluidics system. The following parameters are dependent on the protein kinase used and can be determined by one skilled in the art as part of a typical assay development process. For example, the peptide substrate used can be identified from the current literature, by screening a peptide library of potential protein kinase substrates, or by other applicable means accepted in the field.\nThe following table provides typical screen assay parameters appropriate for a Caliper HTS 250 microfluidics system.\nThe reagents and buffers listed in the following table are generally applicable for developing and running an HTS screen on a human protein kinase using the Caliper HTS 250 system.\nThe following reagents were prepared using the previously described buffers.\nA 2× Master Buffer solution was prepared by combining 200 mL of 1 M HEPES, pH 7.5, 2 mL of 10% Triton X-100, 20 mL of 10% BSA, and 778 mL of H2O.\nA TCB Buffer solution was prepared by combining 125 mL of 2× Master Buffer, 10 mL of 0.5 M EDTA, 6.25 mL of 4% coating reagent, 1.01 mL of 100% DMSO, and 107.74 mL H2O.\nAssays to determine the kinase inhibitory activity of compounds of the present disclosure were performed using a Caliper HTS 250 microfluidics device, Greiner U-bottom assay plates, a Multidrop for transfer of reagents, and Biomek FX (AMNCBM03) software. Initially, 2.4 μL of a 1 mM solution of a test compound in 100% DMSO was added to a well of the Greiner U-bottom plate. A single Greiner U-bottom plate having 24×16 wells could include multiple test compounds. […] Using the Biomek FX, 10 μL of 0.5 M EDTA was added by the span-8 to wells, indicated as 100% Control and 2.4 μL of 100% DMSO was added by the span-8 to wells, indicated as 0% Control. […] The total reaction volume in each well was 25 μL, and the concentration of the test compound was 10 μM. The assay plate was incubated for 2.5 hrs at 20° C. to 22° C. […] The inhibition of the ATP-utilizing enzyme, such as a particular protein kinase, was determined by measuring the ratio of the peptide substrate to phosphorylated product for each well of the assay plate using the Caliper HTS 250 system.\nThe use of six-sigma statistical limits represents a conservative method for declaring potential hits among targets. The six-sigma activity, as well as the mean population activity, can be different for each target enzyme.", "values": [
      {"smiles": "Cc1ccc(-c2ccc3nccc(Nc4ccc(N5CCC(N(C)C)C5)cc4)c3c2)cc1C", "note": "(stereo not shown) [N-(4-(3-(dimethylamino)pyrrolidin-1-yl)phenyl)-6-(3,4-dimethylphenyl)quinolin-4-amine]", "Activity": "MAPKAPK2"},
      {"smiles": "CC(C)c1ccc(-c2ccc3nccc(Nc4ccc(N5CCC(N(C)C)C5)cc4)c3c2)cc1", "note": "(stereo not shown) [N-(4-(3-(dimethylamino)pyrrolidin-1-yl)phenyl)-6-(4-isopropylphenyl)quinolin-4-amine]", "Activity": "MAPKAPK2"},
      {"smiles": "CN1CCN(c2ccc(Nc3ccnc4ccc(-c5ccc(CCC(=O)O)cc5)cc34)cc2)CC1", "note": "[3-(4-(4-(4-(4-methylpiperazin-1-yl)phenylamino)quinolin-6-yl)phenyl)propanoic acid]", "Activity": "MAPKAPK2"},
      {"smiles": "COc1ccc(-c2ccc3nccc(Nc4ccc(N5CCN(C6CCCC6)CC5)cc4)c3c2)cc1", "note": "[N-(4-(4-cyclopentylpiperazin-1-yl)phenyl)-6-(4-methoxyphenyl)quinolin-4-amine]", "Activity": "MAPKAPK2"},
      {"smiles": "CN1CCN(c2ccc(Nc3ccnc4ccc(-c5cncnc5)cc34)cc2)CC1", "note": "[N-(4-(4-methylpiperazin-1-yl)phenyl)-6-(pyrimidin-5-yl)quinolin-4-amine]", "Activity": "MAPKAPK2"},
      {"smiles": "CN(CCC(F)(F)F)C1CCN(c2ccc(Nc3ccnc4ccc(-c5ccc(C#N)cc5)cc34)cc2)C1", "note": "(stereo not shown) [4-(4-(4-(3-(methyl(3,3,3-trifluoropropyl)amino)pyrrolidin-1-yl)phenylamino)quinolin-6-yl)benzonitrile]", "Activity": "MAPKAPK2"},
      {"smiles": "CC1CCN(c2ccc(Nc3ccnc4ccc(-c5ccc(C#N)cc5)cc34)cc2)CC1", "note": "[4-(4-(4-(4-methylpiperidin-1-yl)phenylamino)quinolin-6-yl)benzonitrile]", "Activity": "MAPKAPK2"},
      {"smiles": "CN(C)[C@H]1CCN(c2ccc(Nc3ccnc4ccc(-c5ccc(Cl)cc5)cc34)cc2)C1", "note": "[(S)-6-(4-chlorophenyl)-N-(4-(3-(dimethylamino)pyrrolidin-1-yl)phenyl)quinolin-4-amine]", "Activity": "MAPKAPK2"},
      {"smiles": "CN1CCC(c2ccc(Nc3ccnc4ccc(-c5ccc(C#N)cc5)cc34)cc2)CC1", "note": "[4-(4-(4-(1-methylpiperidin-4-yl)phenylamino)quinolin-6-yl)benzonitrile]", "Activity": "MAPKAPK2"},
      {"smiles": "COc1ccc(-c2ccc3nccc(Nc4ccc(N5CCN(C6CCCCC6)CC5)cc4)c3c2)cc1", "note": "[N-(4-(4-cyclohexylpiperazin-1-yl)phenyl)-6-(4-methoxyphenyl)quinolin-4-amine]", "Activity": "MAPKAPK2"},
      {"smiles": "c1ccc(-c2ccc3nccc(Nc4ccc(N5CCN(C6CCCCC6)CC5)cc4)c3c2)cc1", "note": "[N-(4-(4-cyclohexylpiperazin-1-yl)phenyl)-6-phenylquinolin-4-amine]", "Activity": "MAPKAPK2"},
      {"smiles": "CN(C)C1CCN(c2ccc(Nc3ccnc4ccc(-c5cccc(OCc6ccccc6)c5)cc34)cc2)C1", "note": "(stereo not shown) [6-(3-(benzyloxy)phenyl)-N-(4-(3-(dimethylamino)pyrrolidin-1-yl)phenyl)quinolin-4-amine]", "Activity": "MAPKAPK2"},
      {"smiles": "CCN(CC)C1CCN(c2ccc(Nc3ccnc4ccc(-c5ccc(Cl)cc5)cc34)cc2)C1", "note": "(stereo not shown) [6-(4-chlorophenyl)-N-(4-(3-(diethylamino)pyrrolidin-1-yl)phenyl)quinolin-4-amine]", "Activity": "MAPKAPK2"},
      {"smiles": "Cc1cc(-c2ccc3nccc(Nc4ccc(N5CCC(N(C)C)C5)cc4)c3c2)ccc1C#N", "note": "(stereo not shown) [4-(4-(4-(3-(dimethylamino)pyrrolidin-1-yl)phenylamino)quinolin-6-yl)-2-methylbenzonitrile]", "Activity": "MAPKAPK2"},
      {"smiles": "C=CCN1CCN(c2ccc(Nc3ccnc4ccc(-c5ccc(C#N)cc5)cc34)cc2)CC1", "note": "[4-(4-(4-(4-allylpiperazin-1-yl)phenylamino)quinolin-6-yl)benzonitrile]", "Activity": "MAPKAPK2"},
      {"smiles": "CN(C)C(=O)CN1CCN(c2ccc(Nc3ccnc4ccc(-c5ccc(C#N)cc5)cc34)cc2)CC1", "note": "[2-(4-(4-(6-(4-cyanophenyl)quinolin-4-ylamino)phenyl)piperazin-1-yl)-N,N-dimethylacetamide]", "Activity": "MAPKAPK2"},
      {"smiles": "c1ccc(-c2ccc3nccc(Nc4ccc(N5CCN(C6CCCC6)CC5)cc4)c3c2)cc1", "note": "[N-(4-(4-cyclopentylpiperazin-1-yl)phenyl)-6-phenylquinolin-4-amine]", "Activity": "MAPKAPK2"},
      {"smiles": "COc1cccc(-c2ccc3nccc(Nc4ccc(N5CCC(N(C)C)C5)cc4)c3c2)c1", "note": "(stereo not shown) [N-(4-(3-(dimethylamino)pyrrolidin-1-yl)phenyl)-6-(3-methoxyphenyl)quinolin-4-amine]", "Activity": "MAPKAPK2"},
      {"smiles": "CN(C)C1CCN(c2ccc(Nc3ccnc4ccc(-c5cccc(Cl)c5)cc34)cc2)C1", "note": "(stereo not shown) [6-(3-chlorophenyl)-N-(4-(3-(dimethylamino)pyrrolidin-1-yl)phenyl)quinolin-4-amine]", "Activity": "MAPKAPK2"},
      {"smiles": "N#Cc1ccc(-c2ccc3nccc(Nc4ccc(N5CCN(C6CCCC6)CC5)cc4)c3c2)cc1", "note": "[4-(4-(4-(4-cyclopentylpiperazin-1-yl)phenylamino)quinolin-6-yl)benzonitrile]", "Activity": "MAPKAPK2"},
      {"smiles": "Cc1ccc(-c2ccc3nccc(Nc4ccc(N5CCC(N(C)C)C5)cc4)c3c2)cc1F", "note": "(stereo not shown) [N-(4-(3-(dimethylamino)pyrrolidin-1-yl)phenyl)-6-(3-fluoro-4-methylphenyl)quinolin-4-amine]", "Activity": "MAPKAPK2"},
      {"smiles": "CN(C)C1CCN(c2ccc(Nc3ccnc4ccc(-c5ccc6c(c5)OCO6)cc34)cc2)C1", "note": "(stereo not shown) [6-(benzo[d][1,3]dioxol-5-yl)-N-(4-(3-(dimethylamino)pyrrolidin-1-yl)phenyl)quinolin-4-amine]", "Activity": "MAPKAPK2"},
      {"smiles": "CN1CCN(c2ccc(Nc3ccnc4ccc(-c5ccc(C(F)(F)F)cc5C(F)(F)F)cc34)cc2)CC1", "note": "[6-(2,4-bis(trifluoromethyl)phenyl)-N-(4-(4-methylpiperazin-1-yl)phenyl)quinolin-4-amine]", "Activity": "MAPKAPK2"},
      {"smiles": "CN(C)C1CCN(c2ccc(Nc3ccnc4ccc(-c5ccc6[nH]ccc6c5)cc34)cc2)C1", "note": "(stereo not shown) [N-(4-(3-(dimethylamino)pyrrolidin-1-yl)phenyl)-6-(1H-indol-5-yl)quinolin-4-amine]", "Activity": "MAPKAPK2"},
      {"smiles": "CCN(CC)C1CCN(c2ccc(Nc3ccnc4ccc(-c5ccc(C#N)cc5)cc34)cc2)C1", "note": "(stereo not shown) [4-(4-(4-(3-(diethylamino)pyrrolidin-1-yl)phenylamino)quinolin-6-yl)benzonitrile]", "Activity": "MAPKAPK2"},
      {"smiles": "CN(C)C1CCN(c2ccc(Nc3ccnc4ccc(-c5ccc(Cl)c(F)c5)cc34)cc2)C1", "note": "(stereo not shown) [6-(4-chloro-3-fluorophenyl)-N-(4-(3-(dimethylamino)pyrrolidin-1-yl)phenyl)quinolin-4-amine]", "Activity": "MAPKAPK2"},
      {"smiles": "COc1ccc(-c2ccc3nccc(Nc4ccc(N5CCN(CCO)CC5)cc4)c3c2)cc1", "note": "[2-(4-(4-(6-(4-methoxyphenyl)quinolin-4-ylamino)phenyl)piperazin-1-yl)ethanol]", "Activity": "MAPKAPK2"},
      {"smiles": "Cc1ccc(-c2ccc3nccc(Nc4ccc(N5CCC(N(C)C)C5)cc4)c3c2)nc1", "note": "(stereo not shown) [N-(4-(3-(dimethylamino)pyrrolidin-1-yl)phenyl)-6-(5-methylpyridin-2-yl)quinolin-4-amine]", "Activity": "MAPKAPK2"},
      {"smiles": "CCC(C)N1CCN(c2ccc(Nc3ccnc4ccc(-c5ccc(OC)cc5)cc34)cc2)CC1", "note": "(stereo not shown) [N-(4-(4-sec-butylpiperazin-1-yl)phenyl)-6-(4-methoxyphenyl)quinolin-4-amine]", "Activity": "MAPKAPK2"},
      {"smiles": "CN1CCN(c2ccc(Nc3ccnc4ccc(-c5ccc(C#N)cc5)cc34)cn2)CC1", "note": "[4-(4-(6-(4-methylpiperazin-1-yl)pyridin-3-ylamino)quinolin-6-yl)benzonitrile]", "Activity": "MAPKAPK2"},
      {"smiles": "CN(C)[C@@H]1CCN(c2ccc(Nc3ccnc4ccc(-c5ccc(Cl)cc5)cc34)cc2)C1", "note": "[(R)-6-(4-chlorophenyl)-N-(4-(3-(dimethylamino)pyrrolidin-1-yl)phenyl)quinolin-4-amine]", "Activity": "MAPKAPK2"},
      {"smiles": "CN(C)C1CCN(c2ccc(Nc3ccnc4ccc(-c5ccc(Cl)nc5)cc34)cc2)C1", "note": "(stereo not shown) [6-(6-chloropyridin-3-yl)-N-(4-(3-(dimethylamino)pyrrolidin-1-yl)phenyl)quinolin-4-amine]", "Activity": "MAPKAPK2"},
      {"smiles": "CC(C)N1CCN(c2ccc(Nc3ccnc4ccc(-c5ccc(C#N)cc5)cc34)cc2)CC1", "note": "[4-(4-(4-(4-isopropylpiperazin-1-yl)phenylamino)quinolin-6-yl)benzonitrile]", "Activity": "MAPKAPK2"},
      {"smiles": "Cc1ccc(-c2ccc3nccc(Nc4ccc(N5CCC(N(C)C)C5)cc4)c3c2)cc1", "note": "(stereo not shown) [N-(4-(3-(dimethylamino)pyrrolidin-1-yl)phenyl)-6-p-tolylquinolin-4-amine]", "Activity": "MAPKAPK2"}
    ]}
  ]
}
